Test results published in patent US8440628B2, “Medical compositions containing ghrelin” (Daiichi Sankyo Company, Limited, priority 2002, dated 2013).

Assay: Stability of human ghrelin in 0.1M HCl and Mcllvain buffer solutions of various pH at 25°C (Example 2, HPLC peak area ratio)
Assay type: physicochemical
Protocol: Human ghrelin was dissolved in the following aqueous solutions in the concentration of about 0.15 μmol/mL (0.5 mg/mL).
0.1M HCl aqueous solution (pH: 1.1)
The pH was adjusted with 0.1M citric aqueous acid and 0.2M dibasic sodium phosphate aqueous solution.
Each solution were stored at 25±2° C. for 8, 24, 48 and 72 hours respectively, and the obtained solutions were detected by HPLC analysis in comparison to the solutions before storage. […] No significant changes of pH in solution before storage and after storage were observed.

[1] = human ghrelin 0.5 mg/mL in 0.1M HCl aqueous solution, pH 1, 25±2°C, 8 hr. after
[2] = human ghrelin 0.5 mg/mL in 0.1M HCl aqueous solution, pH 1, 25±2°C, 24 hr. after
[3] = human ghrelin 0.5 mg/mL in 0.1M HCl aqueous solution, pH 1, 25±2°C, 48 hr. after
[4] = human ghrelin 0.5 mg/mL in 0.1M HCl aqueous solution, pH 1, 25±2°C, 72 hr. after
[5] = human ghrelin 0.5 mg/mL in 0.1M HCl aqueous solution, pH 1, 25±2°C, before storage
[6] = human ghrelin 0.5 mg/mL in Mcllvain buffer, pH 2, 25±2°C, 8 hr. after
[7] = human ghrelin 0.5 mg/mL in Mcllvain buffer, pH 2, 25±2°C, 24 hr. after
[8] = human ghrelin 0.5 mg/mL in Mcllvain buffer, pH 2, 25±2°C, 48 hr. after
[9] = human ghrelin 0.5 mg/mL in Mcllvain buffer, pH 2, 25±2°C, 72 hr. after
[10] = human ghrelin 0.5 mg/mL in Mcllvain buffer, pH 2, 25±2°C, before storage
[11] = human ghrelin 0.5 mg/mL in Mcllvain buffer, pH 3, 25±2°C, 8 hr. after
[12] = human ghrelin 0.5 mg/mL in Mcllvain buffer, pH 3, 25±2°C, 24 hr. after
[13] = human ghrelin 0.5 mg/mL in Mcllvain buffer, pH 3, 25±2°C, 48 hr. after
[14] = human ghrelin 0.5 mg/mL in Mcllvain buffer, pH 3, 25±2°C, 72 hr. after
[15] = human ghrelin 0.5 mg/mL in Mcllvain buffer, pH 3, 25±2°C, before storage
[16] = human ghrelin 0.5 mg/mL in Mcllvain buffer, pH 4, 25±2°C, 8 hr. after
[17] = human ghrelin 0.5 mg/mL in Mcllvain buffer, pH 4, 25±2°C, 24 hr. after
[18] = human ghrelin 0.5 mg/mL in Mcllvain buffer, pH 4, 25±2°C, 48 hr. after
[19] = human ghrelin 0.5 mg/mL in Mcllvain buffer, pH 4, 25±2°C, 72 hr. after
[20] = human ghrelin 0.5 mg/mL in Mcllvain buffer, pH 4, 25±2°C, before storage
[21] = human ghrelin 0.5 mg/mL in Mcllvain buffer, pH 5, 25±2°C, 8 hr. after
[22] = human ghrelin 0.5 mg/mL in Mcllvain buffer, pH 5, 25±2°C, 24 hr. after
[23] = human ghrelin 0.5 mg/mL in Mcllvain buffer, pH 5, 25±2°C, 48 hr. after
[24] = human ghrelin 0.5 mg/mL in Mcllvain buffer, pH 5, 25±2°C, 72 hr. after
[25] = human ghrelin 0.5 mg/mL in Mcllvain buffer, pH 5, 25±2°C, before storage

Peak area ratio to total peak area [1]: 94.40%
pH observed [1]: 1.2
Peak area ratio to total peak area [2]: 86.00%
pH observed [2]: 1.2
Peak area ratio to total peak area [3]: 74.62%
pH observed [3]: 1.2
Peak area ratio to total peak area [4]: 65.04%
pH observed [4]: 1.2
Peak area ratio to total peak area [5]: 98.89%
pH observed [5]: 1.1
Peak area ratio to total peak area [6]: 98.82%
pH observed [6]: 2.0
Peak area ratio to total peak area [7]: 98.24%
pH observed [7]: 2.0
Peak area ratio to total peak area [8]: 97.35%
pH observed [8]: 2.0
Peak area ratio to total peak area (human ghrelin 0.5 mg/mL in Mcllvain buffer, pH 2, 25±2°C, 48 hr. after, listed as human ghrelin): less than 98%
Peak area ratio to total peak area [9]: 96.46%
pH observed [9]: 2.0
Peak area ratio to total peak area [10]: 99.07%
pH observed [10]: 2.0
Peak area ratio to total peak area [11]: 98.98%
pH observed [11]: 3.1
Peak area ratio to total peak area [12]: 98.77%
pH observed [12]: 3.1
Peak area ratio to total peak area [13]: 98.40%
pH observed [13]: 3.1
Peak area ratio to total peak area [14]: 98.03%
pH observed [14]: 3.1
Peak area ratio to total peak area [15]: 99.07%
pH observed [15]: 3.0
Peak area ratio to total peak area [16]: 99.07%
pH observed [16]: 4.0
Peak area ratio to total peak area [17]: 98.92%
pH observed [17]: 4.0
Peak area ratio to total peak area [18]: 98.69%
pH observed [18]: 4.0
Peak area ratio to total peak area [19]: 98.44%
pH observed [19]: 4.0
Peak area ratio to total peak area [20]: 99.07%
pH observed [20]: 4.0
Peak area ratio to total peak area [21]: 99.04%
pH observed [21]: 5.0
Peak area ratio to total peak area [22]: 98.91%
pH observed [22]: 5.0
Peak area ratio to total peak area [23]: 98.59%
pH observed [23]: 5.0
Peak area ratio to total peak area [24]: 98.37%
pH observed [24]: 5.0
Peak area ratio to total peak area [25]: 99.06%
pH observed [25]: 5.0
Peak area ratio to total peak area (human ghrelin 0.5 mg/mL in Mcllvain buffer, pH 6, 25±2°C, 8 hr. after): 98.87%
SMILES: CCCCCCCC(=O)OC[C@H](NC(=O)[C@H](CO)NC(=O)CN)C(=O)N[C@@H](Cc1ccccc1)C(=O)N[C@@H](CC(C)C)C(=O)N[C@@H](CO)C(=O)N1CCC[C@H]1C(=O)N[C@@H](CCC(=O)O)C(=O)N[C@@H](Cc1c[nH]cn1)C(=O)N[C@@H](CCC(N)=O)C(=O)N[C@@H](CCCNC(=N)N)C(=O)N[C@H](C(=O)N[C@@H](CCC(N)=O)C(=O)N[C@@H](CCC(N)=O)C(=O)N[C@@H](CCCNC(=N)N)C(=O)N[C@@H](CCCCN)C(=O)N[C@@H](CCC(=O)O)C(=O)N[C@@H](CO)C(=O)N[C@@H](CCCCN)C(=O)N[C@@H](CCCCN)C(=O)N1CCC[C@H]1C(=O)N1CCC[C@H]1C(=O)N[C@@H](C)C(=O)N[C@@H](CCCCN)C(=O)N[C@@H](CC(C)C)C(=O)N[C@@H](CCC(N)=O)C(=O)N1CCC[C@H]1C(=O)N[C@@H](CCCNC(=N)N)C(=O)O)C(C)C [Human ghrelin]
